Results: US20220274927A1, “MEMBRANE-ACTIVE ANTI-BACTERIAL COMPOUNDS AND USES THEREOF” (Trustees of Dartmouth College, priority 2019, published 2022)
Converted amounts (≈) assume the structure as drawn. Read-outs that look alike come from different tables or passages of the source.

Tested on: methicillin-resistant S. aureus (FPR3757)
Experiment: MIC against clinical MRSA strain FPR3757 in Mueller-Hinton broth (CLSI)
Assay type: cell-based, Staphylococcus aureus
Conditions: for fold loss of potency (MIC) relative to the comparator / fold increase in potency (MIC) relative to the comparator: MRSA FPR3757 MIC ratio
Excerpt: The first set of compounds evaluated were analogs at the C-7 and C-8 positions of the initial quinolone hit DNAC-2 since the other HTS hits identified (data not shown) were substituted at these positions (Table 1). Applicants first explored modification at the C-7 position with a small series of electron-donating and withdrawing substituents. […] However, analogs containing electron donating groups at C-7 including ethyl 7, benzyloxy 8, methoxy 9 and methylthio 10 are weakly active displaying MICs of 320-640 μg/mL indicating electron-donating substituents at C-7 are poorly tolerated. […] The C-8 position was evaluated with trifluoromethyl 4 and trifluoromethoxy 5 containing the optimal C-7 substituents. Both 4 and 5 are equipotent to the corresponding C-7 analogs 2 and 3 indicating some flexibility of the quinolone scaffold.

[1] = MRSA clinical strain FPR3757, Mueller-Hinton broth, CLSI guidelines, complete inhibition of observable growth
[2] = Staphylococcus aureus, MRSA, MRSA clinical strain FPR3757, Mueller-Hinton broth, CLSI guidelines, complete inhibition of observable growth, read-out: MIC
[3] = Staphylococcus aureus, MRSA, MRSA clinical strain FPR3757, Mueller-Hinton broth, CLSI guidelines, complete inhibition of observable growth

Structure (SMILES)	MIC [1]	MIC [2]	other results
FC(F)(F)Oc1cccc(Nc2cc(C(F)(F)F)nc3c(OC(F)(F)F)cccc23)c1 [Compound 1]	8 µg/mL (≈ 17.5 µM)	–	–
O=c1cc(C(F)(F)F)[nH]c2cc(C(F)(F)F)ccc12 [Compound 2]	5 µg/mL (≈ 17.8 µM)	4 to 8 µg/mL (≈ 14.2 to 28.5 µM)	–
O=c1cc(C(F)(F)F)[nH]c2cc(OC(F)(F)F)ccc12 [Compound 3]	–	4 to 8 µg/mL (≈ 13.5 to 26.9 µM)	–
O=c1cc(C(F)(F)F)[nH]c2c(C(F)(F)F)cccc12 [Compound 4]	–	2 to 4 µg/mL (≈ 7.11 to 14.2 µM)	–
O=c1cc(C(F)(F)F)[nH]c2c(OC(F)(F)F)cccc12 [Compound 5]	–	5 µg/mL (≈ 16.8 µM)	–
O=c1cc(C(F)(F)F)[nH]c2cc(Cl)ccc12 [Compound 6]	–	20 µg/mL (≈ 80.8 µM)	–
CCc1ccc2c(=O)cc(C(F)(F)F)[nH]c2c1 [Compound 7]	320 µg/mL (≈ 1330 µM)	320 to 640 µg/mL (≈ 1330 to 2650 µM)	–
O=c1cc(C(F)(F)F)[nH]c2cc(OCc3ccccc3)ccc12 [Compound 8]	640 µg/mL (≈ 2000 µM)	–	–
COc1ccc2c(=O)cc(C(F)(F)F)[nH]c2c1 [Compound 9]	640 µg/mL (≈ 2630 µM)	320 to 640 µg/mL (≈ 1320 to 2630 µM)	fold loss of potency (MIC) relative to the comparator: 80-160 fold
CSc1ccc2c(=O)cc(C(F)(F)F)[nH]c2c1 [Compound 10]	640 µg/mL (≈ 2470 µM)	–	–
FC(F)(F)c1ccc2c(Nc3ccccc3)cc(C(F)(F)F)nc2c1 [Compound 11]	–	–	MIC (Staphylococcus aureus, MRSA): 128 µg/mL (≈ 359 µM)
CC(C)c1ccccc1Nc1cc(C(F)(F)F)nc2cc(C(F)(F)F)ccc12 [Compound 12]	–	320 µg/mL (≈ 803 µM)	–
CC(=O)c1cccc(Nc2cc(C(F)(F)F)nc3cc(C(F)(F)F)ccc23)c1 [Compound 13]	–	–	MIC (Staphylococcus aureus, MRSA): > 128 µg/mL
N#Cc1cccc(Nc2cc(C(F)(F)F)nc3cc(C(F)(F)F)ccc23)c1 [Compound 14]	>32 µg/mL	–	–
FC(F)(F)c1ccc2c(Nc3ccccc3Cl)cc(C(F)(F)F)nc2c1 [Compound 15]	–	> 16 µg/mL	–
FC(F)(F)c1ccc2c(Nc3cccc(Cl)c3)cc(C(F)(F)F)nc2c1 [Compound 16]	0.25 µg/mL (≈ 0.64 µM)	0.125 to 0.25 µg/mL (≈ 0.32 to 0.64 µM)	–
FC(F)(F)c1ccc2c(Nc3ccc(Cl)cc3)cc(C(F)(F)F)nc2c1 [Compound 17]	0.12 µg/mL (≈ 0.307 µM)	0.125 to 0.25 µg/mL (≈ 0.32 to 0.64 µM)	–
Fc1cccc(Nc2cc(C(F)(F)F)nc3cc(C(F)(F)F)ccc23)c1 [Compound 18]	–	–	fold loss of potency (MIC) relative to the comparator: 16-64 fold
FC(F)(F)c1ccc2c(Nc3cccc(Br)c3)cc(C(F)(F)F)nc2c1 [Compound 19]	–	0.25 µg/mL (≈ 0.574 µM)	–
FC(F)(F)c1ccc2c(Nc3cccc(I)c3)cc(C(F)(F)F)nc2c1 [Compound 20]	–	0.25 µg/mL (≈ 0.518 µM)	–
Fc1ccc(Nc2cc(C(F)(F)F)nc3cc(C(F)(F)F)ccc23)cc1F [Compound 21]	0.12 to 0.25 µg/mL	0.125 to 0.25 µg/mL (≈ 0.319 to 0.637 µM)	–
OCc1cccc(Nc2cc(C(F)(F)F)nc3cc(C(F)(F)F)ccc23)c1 [Compound 23]	–	> 16 µg/mL	–
CSc1cccc(Nc2cc(C(F)(F)F)nc3cc(C(F)(F)F)ccc23)c1 [Compound 24]	0.25 to 0.5 µg/mL	–	–
COc1cccc(Nc2cc(C(F)(F)F)nc3cc(C(F)(F)F)ccc23)c1 [Compound 25]	–	> 64 µg/mL	–

Structure (SMILES)	MIC [1]	MIC [2]	other results
FC(F)(F)c1cccc(Nc2cc(C(F)(F)F)nc3cc(C(F)(F)F)ccc23)c1 [Compound 26]	–	0.25 µg/mL (≈ 0.589 µM)	fold increase in potency (MIC) relative to the comparator: 16 fold
FC(F)(F)Oc1cccc(Nc2cc(C(F)(F)F)nc3cc(C(F)(F)F)ccc23)c1 [Compound 27]	–	8 µg/mL (≈ 18.2 µM)	–
FC(F)(F)c1ccc2c(Nc3ccc4c(c3)OCO4)cc(C(F)(F)F)nc2c1 [Compound 28]	>4 µg/mL	–	–
FC(F)(F)c1ccc2c(Nc3cccc(N4CCOCC4)c3)cc(C(F)(F)F)nc2c1 [Compound 29]	–	> 16 µg/mL	–
FC(F)(F)c1ccc2c(Nc3ccc(N4CCOCC4)cc3)cc(C(F)(F)F)nc2c1 [Compound 30]	–	> 16 µg/mL	–
FC(F)(F)Oc1ccc2c(Nc3ccc(Cl)c(Cl)c3)cc(C(F)(F)F)nc2c1 [Compound 32]	–	0.5 to 1 µg/mL (≈ 1.13 to 2.27 µM)	–
FC(F)(F)Oc1cccc(Nc2cc(C(F)(F)F)nc3cc(OC(F)(F)F)ccc23)c1 [Compound 33]	1 µg/mL (≈ 2.19 µM)	0.5 to 1 µg/mL (≈ 1.1 to 2.19 µM)	–
FC(F)(F)Oc1ccc2c(Nc3ccc(C(F)(F)F)cn3)cc(C(F)(F)F)nc2c1 [Compound 34]	1 µg/mL (≈ 2.27 µM)	0.5 to 1 µg/mL (≈ 1.13 to 2.27 µM)	–
COc1ccc2c(Nc3ccc(Cl)c(Cl)c3)cc(C(F)(F)F)nc2c1 [Compound 35]	–	2 µg/mL (≈ 5.17 µM)	–
COc1ccc2c(Nc3ccc(F)c(F)c3)cc(C(F)(F)F)nc2c1 [Compound 36]	–	> 32 µg/mL	–
COc1ccc2c(Nc3cccc(OC(F)(F)F)c3)cc(C(F)(F)F)nc2c1 [Compound 37]	–	> 32 µg/mL	–
COc1ccc2c(Nc3ccc(C(F)(F)F)cn3)cc(C(F)(F)F)nc2c1 [Compound 38]	–	32 µg/mL (≈ 82.6 µM)	–
FC(F)(F)Oc1cccc2c(Nc3ccc(Cl)c(Cl)c3)cc(C(F)(F)F)nc12 [Compound 42]	–	0.5 µg/mL (≈ 1.13 µM)	–
FC(F)(F)Oc1cccc(Nc2cc(C(F)(F)F)nc3c(OC(F)(F)F)cccc23)c1 [Compound 43]	1 µg/mL (≈ 2.19 µM)	–	–
FC(F)(F)Oc1cccc2c(Nc3ccc(C(F)(F)F)cn3)cc(C(F)(F)F)nc12 [Compound 44]	–	1 µg/mL (≈ 2.27 µM)	–
FC(F)(F)c1cc(Nc2ccc(Cl)c(Cl)c2)c2cccc(C(F)(F)F)c2n1 [Compound 45]	–	0.5 to 2 µg/mL (≈ 1.18 to 4.7 µM)	–
FC(F)(F)c1cccc(Nc2cc(C(F)(F)F)nc3c(C(F)(F)F)cccc23)c1 [Compound 46]	–	1 µg/mL (≈ 2.36 µM)	–
FC(F)(F)c1ccc(Nc2cc(C(F)(F)F)nc3c(C(F)(F)F)cccc23)nc1 [Compound 47]	–	0.5 µg/mL (≈ 1.18 µM)	–
FC(F)(F)c1ccc2c(Nc3cc(Cl)ccn3)cc(C(F)(F)F)nc2c1 [Compound 48]	–	2 µg/mL (≈ 5.11 µM)	fold loss of potency (MIC) relative to the comparator: 8 fold
FC(F)(F)c1ccc2c(Nc3ccc(C(F)(F)F)nc3)cc(C(F)(F)F)nc2c1 [Compound 49]	–	> 32 µg/mL	–
Cn1cc(Nc2cc(C(F)(F)F)nc3cc(C(F)(F)F)ccc23)ccc1=O [Compound 50]	–	> 32 µg/mL	–
Oc1ncccc1Nc1cc(C(F)(F)F)nc2cc(C(F)(F)F)ccc12 [Compound 51]	–	> 128 µg/mL	–
O=c1cc(Nc2cc(C(F)(F)F)nc3cc(C(F)(F)F)ccc23)cc[nH]1 [Compound 52]	–	> 32 µg/mL	–
FC(F)(F)c1ccc2c(Nc3ccncc3)cc(C(F)(F)F)nc2c1 [Compound 53]	>32 µg/mL	–	MIC [3]: > 32 µg/mL

Structure (SMILES)	MIC [1]	MIC [2]	other results
COC(=O)c1cc(Nc2cc(C(F)(F)F)nc3cc(C(F)(F)F)ccc23)ccn1 [Compound 54]	>32 µg/mL	> 32 µg/mL	–
FC(F)(F)c1ccc2c(Nc3nccs3)cc(C(F)(F)F)nc2c1 [Compound 55]	1 to 2 µg/mL	2 µg/mL (≈ 5.51 µM)	–
FC(F)(F)c1ccc2c(Nc3ncccn3)cc(C(F)(F)F)nc2c1 [Compound 56]	>32 µg/mL	> 32 µg/mL	–
FC(F)(F)c1ccc2c(NC3CCCCC3)cc(C(F)(F)F)nc2c1 [Compound 57]	>16 µg/mL	–	MIC [3]: > 32 µg/mL
OC1CCCN(c2cc(C(F)(F)F)nc3cc(C(F)(F)F)ccc23)C1 (centres unmarked) [Compound 58]	>32 µg/mL	> 32 µg/mL	–
FC(F)(F)c1ccc2c(N3CCOCC3)cc(C(F)(F)F)nc2c1 [Compound 59]	>32 µg/mL	> 32 µg/mL	–
FC(F)(F)c1ccc2c(NC[C@@H]3CCCN3)cc(C(F)(F)F)nc2c1 [Compound 60]	>32 µg/mL	> 32 µg/mL	–
FC(F)(F)c1ccc2c(Nc3cccc4[nH]ncc34)cc(C(F)(F)F)nc2c1 [Compound 61]	>32 µg/mL	> 32 µg/mL	–
CN1Cc2cc(Nc3cc(C(F)(F)F)nc4cc(C(F)(F)F)ccc34)ccc2C1=O [Compound 62]	>32 µg/mL	> 32 µg/mL	–
FC(F)(F)c1ccc2c(N3CCc4cccnc43)cc(C(F)(F)F)nc2c1 [Compound 63]	>32 µg/mL	> 32 µg/mL	–
O=C1Cc2cc(Nc3cc(C(F)(F)F)nc4cc(C(F)(F)F)ccc34)ccc2N1 [Compound 64]	>32 µg/mL	> 32 µg/mL	–
O[C@H]1C[C@H]2CC[C@@H](C1)C2Nc1cc(C(F)(F)F)nc2cc(C(F)(F)F)ccc12 (some centres unmarked) [Compound 65]	>32 µg/mL	> 32 µg/mL	–
FC(F)(F)c1ccc2c(Nc3ccc(Cl)c(Cl)c3)nc(C(F)(F)F)nc2c1 [Compound 89]	0.5 µg/mL (≈ 1.17 µM)	–	fold loss of potency (MIC) relative to the comparator: 8 fold
FC(F)(F)Oc1cccc(Nc2nc(C(F)(F)F)nc3cc(C(F)(F)F)ccc23)c1 [Compound 90]	1 µg/mL (≈ 2.27 µM)	–	fold increase in potency (MIC) relative to the comparator: 8 fold
FC(F)(F)c1ccc(Nc2nc(C(F)(F)F)nc3cc(C(F)(F)F)ccc23)nc1 [Compound 91]	–	–	fold loss of potency (MIC) relative to the comparator: 8 fold
FC(F)(F)c1ccc(Nc2cc(N3CCNCC3)nc3cc(C(F)(F)F)ccc23)nc1 [Compound 102]	0.5 to 1 µg/mL	–	–
FC(F)(F)c1ccc(Nc2cc(N3CCNCC3)c3ccc(C(F)(F)F)cc3n2)nc1 [Compound 103]	4 to 8 µg/mL	–	–
FC(F)(F)c1ccc(Nc2cc(N3CCOCC3)c3ccc(C(F)(F)F)cc3n2)nc1 [Compound 105]	8 µg/mL (≈ 18.1 µM)	–	–
O=c1cc(C(F)(F)F)[nH]c2cc(C(F)(F)F)cc(Nc3ccc(F)cn3)c12 [Compound 112]	–	0.12 µg/mL (≈ 0.307 µM)	–
CN(C)c1ccc(Nc2cc(C(F)(F)F)cc3[nH]c(C(F)(F)F)cc(=O)c23)nc1 [Compound 113]	2 µg/mL (≈ 4.8 µM)	1 to 2 µg/mL (≈ 2.4 to 4.8 µM)	–
O=c1cc(C(F)(F)F)[nH]c2cc(C(F)(F)F)cc(-c3ccc(C(F)(F)F)nn3)c12 [Compound 114]	1 µg/mL (≈ 2.34 µM)	1 to 2 µg/mL (≈ 2.34 to 4.68 µM)	–
CN(C)S(=O)(=O)c1ccc(Nc2cc(C(F)(F)F)cc3[nH]c(C(F)(F)F)cc(=O)c23)nc1 [Compound 115]	2 µg/mL (≈ 4.16 µM)	–	–
